Values of other authors in patent US7105176B2, “Production of solid preparations of water-soluble, sparingly water-soluble or water-insoluble active compounds” (BASF Aktiengesellschaft, priority 2000, dated 2006).

Details: at 314 nm

## CCCCC(CC)COC(=O)c1ccc(Nc2nc(Nc3ccc(C(=O)OCC(CC)CCCC)cc3)nc(Nc3ccc(C(=O)OCC(CC)CCCC)cc3)n2)cc1 (stereo not shown) [Uvinul® T150, 2,4,6-trianilino-p-(carbo-2′-ethylhexyl-1′-oxy)-1,3,5-triazine]
  extinction coefficient: > 1500
